Data reported in US8481489B2, “GH secretagogues and uses thereof” (Theratechnologies Inc., priority 2003, dated 2013).
“Also recorded” adds a separate entry of the source. Where two headings read alike, the source gives them in different places. Marks after values point to notes of the source that are not given here.

Tests used:
[1] = In vitro half-life; assay type: in vitro ADME
Source text: The safety profile of TH9507 is generally good.

[2] = tested on: patients exhibiting sleep maintenance insomnia; assay: Continuous Performance Test (CPT), 14-day study in sleep maintenance insomnia; assay type: in vivo, human; conditions: 14 days
Experimental: Patients were selected based on the Pittsburgh Sleep Quality Index (Score ≧5), the Walters Criteria for Sleep Maintenance Insomnia, and the Beck Questionnaire (Score ≦17). The primary exclusion criteria were other primary sleep disorders and the use of any products affecting sleep or vigilance in the 30 days prior to entering the study.
The study was a randomized, double-blind, placebo-controlled, parallel group and multicenter evaluation of two doses of TH9507 (0.1 mg and 1 mg) administered daily by subcutaneous injection at bedtime for 14 consecutive days. To evaluate vigilance and the performance in the morning, patients underwent a battery of cognitive tests including the Continuous Performance Test (CPT) at baseline and at the end of treatment period.
The CPT has been described in the literature as a measure of consistency in responding and ability to sustain attention over time (Aleman A, et al., J Clin Endocrinol Metab 1999 84(2):471-475). This test required subjects to press space bar each time the letter “A” was followed by “X”. Omission and commission errors, and Mean Reaction Time of correct responses were analyzed.

[3] = tested on: IGF-1 and IGFBP-3; assay: Circulating IGF-1 and IGFBP-3 levels, insomnia study; assay type: in vivo, human; conditions: week 2
[4] = tested on: healthy subjects exhibiting age-related sleep impairment; assay: P300 event-related potential test, 7-day cross-over study; assay type: in vivo, human; conditions: 1 mg daily for 7 days
Experimental: In this study, TH9507 was administered daily for 7 days in a cross-over design. […] Changes from Baseline to day 9 in the Pz amplitude of the Evoked Related Potential (P300) observed in the placebo and 1 mg group were as follows: Placebo, −15%; 1 mg, +55%, P=0.0114, as analyzed by an ANOVA model.

[5] = tested on: A/New Caledonia/20/99, A/Panama/2007/99, B/Victoria/504/2000 antigens; assay: Influenza antibody titers by hemaglutination inhibition assay in elderly subjects; assay type: in vivo, human
[6] = tested on: IGF-1; assay: Mean IGF-1 values, influenza vaccination study; assay type: in vivo, human; conditions: 1 and 2 mg SC daily, whole 8-week treatment period
Experimental: Eighty seven (87) subjects aged 75 years in average were included in a double-bind, randomized, placebo-controlled study. TH9507 or a placebo was administered at a daily dose of 1 or 2 mg by subcutaneous injection for 8 weeks. Follow-up assessments were conducted for 12 weeks after the end of the treatment period. At week 4, in the middle of the treatment period, subjects received the commercial Canadian influenza vaccine (Vaccine Fluviral® S/F, Shire, Montreal, Canada) containing 15 μg each of A/New Caledonia/20/99, A/Panama/2007/99, B/Victoria/504/2000 antigens.
Values returned to baseline following cessation of treatment.

[7] = tested on: IGF-1; assay: IGF-1 levels in type II diabetic patients; assay type: in vivo, human; conditions: end of 12-week treatment period
Experimental: A double-blind placebo-controlled study was conducted in 53 type II diabetic patients (age=61±7 [SD]; 34% female) on stable antidiabetic medication (26% on insulin). Patients were randomized to parallel groups to receive daily subcutaneous administration of a placebo, 1 mg or 2 mg TH9507, respectively.

[8] = tested on: HIV-infected patients with abdominal fat accumulation; assay: Quality of life questionnaire (PLC), HIV lipodystrophy study; assay type: in vivo, human
Experimental: A health-related quality of life questionnaire (PLC, Quality of Life Profile for the Chronically Ill) was self-administered to 61 patients randomized to receive placebo or TH9507 at 1 or 2 mg s.c. daily. The PLC questionnaire included a general, non-specific part assessing 6 dimensions of global health as well as a disease specific part capturing impact of enlarged abdominal girth, abdominal bloating, tenseness and pain, as well as diarrhea, visible facial changes, visible changes in physical appearance, and the feeling of being recognized as an HIV positive person.
Study population included 54 men and 7 women. […] Slight changes were observed within the treated groups in the positive mood and social well-being scores but were not considered clinically significant.

[9] = tested on: HIV-infected patients with abdominal fat accumulation; conditions: change from baseline, Week 12, mean (SD)
Experimental: (§1) Design: Randomized, placebo-controlled, multi-center, dose ranging (placebo, 1 mg or 2 mg SC QD), parallel group, 12-week study
(§2) At the baseline visit, anthropometric measurements were obtained. […] Biochemical parameters including insulin-like growth factor-I, glucose, insulin, lipid profile (cholesterol, HDL, LDL, triglyceride, non HDL and the ratio of cholesterol:HDL), free fatty acids, HbA1C, IGFBP-3, and bone markers (serum osteocalcin and NTX-1), CD4, viral load, and a pregnancy test for female subjects were determined in the fasting state. In addition, insulin and glucose response to a 75 gram standard glucose challenge were assessed and a quality of life questionnaire was administered.
(§3) Clinical laboratory testing was performed by a central lab. Serum IGF-1 was measured after acid-ethanol extraction using the Esoterix RIA kit (Esoterix Inc., Calabasas Hill, Calif.), with a sensitivity of 10 ng/mL. Intra- and inter-assay coefficients of variation were 4.6-20% and 9-10%, respectively. Serum IGFBP-3 was measured using the Esoterix RIA kit (Esoterix Inc., Calabasas Hill, Calif.) with a sensitivity of 0.3 mg/mL. Intra- and inter-assay coefficients of variation were 5.1-13% and 5.5-17%, respectively. HDL, LDL, total cholesterol, triglycerides and FFA were determined by enzymatic calorimetric assay. Glucose was measured by enzymatric test (Gluco-Quant®, Roche diagnostics, Indianapolis, Ind.). HbA1c was determined by chromatography.
(§4) Other endpoints included IGF-I, lipid parameters, glucose and insulin, CD4, viral load, bone markers, and quality of life. A sample size of 20 patients/group was planned to assess a statistically significant change of 10% or more in intra-group analyses. The planned dropout rate was 25% and therefore 60 patients were enrolled into the study. Baseline data are compared between the groups by F-test based on ANOVA for continuous variables and Chi-Square test for categorical variables. Change over time between groups is compared by ANOVA or the Chi-Square test. Where appropriate, data were rank transformed prior to analysis. Changes within each group are determined by t-test. The ITT (intent to treat) population is defined as all subjects who received at least one dose of the study treatment. Descriptive statistics and analyses for all efficacy and safety analyses are performed on the ITT population. End of study, 12 week, data are used to calculate changes in body composition. For biochemical indices, the last observation available is used to calculate change. Imputation for missing data is not performed. For body composition, end of study data are used to calculate change. Interim analyses were not performed. Results are mean (SD) unless otherwise noted. All statistical tests were performed with a two-sided Type I error level of 0.05.

[10] = tested on: HIV-infected patients with abdominal fat accumulation; conditions: for CD4, Δ: change from baseline, Week 12, mean (SD)
Experimental: as §1
Biochemical parameters including insulin-like growth factor-I, glucose, insulin, lipid profile (cholesterol, HDL, LDL, triglyceride, non HDL and the ratio of cholesterol:HDL), free fatty acids, HbA1C, IGFBP-3, and bone markers (serum osteocalcin and NTX-1), CD4, viral load, and a pregnancy test for female subjects were determined in the fasting state.
Clinical laboratory testing was performed by a central lab. […] NTX (N-terminal telopeptide of type I collagen; a bone resorption marker) was measured by ELISA using a commercially available kit (Osteomark™, Ostex International Inc., Seattle, Wash.). Osteocalcin was measured using a commercially available enzymatic immunoassay kit (Metra™ osteocalcin, Quidel Corporation, San Diego, Calif.). CD4 and viral load were performed by the individual site labs by routine methodology.

[11] = tested on: IGF-1; conditions: daily 1 and 2 mg doses; reference (14); cited from earlier work
[12] = tested on: HIV-infected patients with abdominal fat accumulation; assay: Lipid parameters, HIV lipodystrophy study; conditions: mean (SD); for Chol:HDL, Δ / HDL, Δ / LDL, Δ / NONHDL Cholesterol, Δ / Total Cholesterol, Δ / Triglycerides, Δ: change from baseline, Week 12; for Triglyceride levels change / ratio of cholesterol to HDL change: last observation values
Experimental: as §1, §2, §3, §4

[13] = tested on: HIV-infected patients with abdominal fat accumulation; assay: Abdominal VAT and SAT by cross-sectional CT, HIV lipodystrophy study; conditions: for SAT, Δ / VAT, Δ: change from baseline, Week 12, mean (SD)
Experimental: as §1
Patients: 61 HIV-infected patients (BMI 28±3 [SD] kg/m^2, 28% diabetic or glucose intolerant) with increased waist circumference (102 cm±8 [SD]) and waist/hip (1.0±0.1 [SD])
At the baseline visit, anthropometric measurements were obtained. Total body lean and fat mass as well as regional fat mass in the trunk and extremities were assessed by DEXA. Abdominal subcutaneous and visceral fat area and the ratio of VAT to SAT were determined by cross-sectional CT at L4-L5.
Whole body and regional DEXA (dual energy X-ray absorptiometry) and cross-sectional abdominal CT scans were performed at the individual study sites based on previously established protocols and were standardized across sites. Digitized images were sent to a central reading center, St. Lukes Roosevelt Hospital, for analysis by independent experts without knowledge of treatment assignment. Each site was given a procedure manual to follow in obtaining the body composition data and was certified in the proper technique. For the CT scans, parameters were standardized as follows: Tube Voltage=120 kV, Tube Current=250 mA, Exposure=375 mAs, matrix 512×512. DFOV was set to include the entire slice into the field of view. For the DEXA scans total body scans were performed with analysis of lean body mass, total fat mass, and regional fat mass in the trunk and extremities as previously described (16).
Body composition endpoints included trunk fat and trunk to limb fat ratio by DEXA and VAT and VAT:SAT by CT scan. […] Baseline data are compared between the groups by F-test based on ANOVA for continuous variables and Chi-Square test for categorical variables. Change over time between groups is compared by ANOVA or the Chi-Square test. Where appropriate, data were rank transformed prior to analysis. Changes within each group are determined by t-test. The ITT (intent to treat) population is defined as all subjects who received at least one dose of the study treatment. Descriptive statistics and analyses for all efficacy and safety analyses are performed on the ITT population. End of study, 12 week, data are used to calculate changes in body composition. […] Imputation for missing data is not performed. For body composition, end of study data are used to calculate change. […] Results are mean (SD) unless otherwise noted. All statistical tests were performed with a two-sided Type I error level of 0.05.

## CC/C=C/CC(=O)N[C@@H](Cc1ccc(O)cc1)C(=O)N[C@@H](C)C(=O)N[C@@H](CC(=O)O)C(=O)N[C@@H](C)C(=O)N[C@H](C(=O)N[C@@H](Cc1ccccc1)C(=O)N[C@H](C(=O)N[C@@H](CC(N)=O)C(=O)N[C@@H](CO)C(=O)N[C@@H](Cc1ccc(O)cc1)C(=O)N[C@@H](CCCNC(=N)N)C(=O)N[C@@H](CCCCN)C(=O)N[C@H](C(=O)N[C@@H](CC(C)C)C(=O)NCC(=O)N[C@@H](CCC(N)=O)C(=O)N[C@@H](CC(C)C)C(=O)N[C@@H](CO)C(=O)N[C@@H](C)C(=O)N[C@@H](CCCNC(=N)N)C(=O)N[C@@H](CCCCN)C(=O)N[C@@H](CC(C)C)C(=O)N[C@@H](CC(C)C)C(=O)N[C@@H](CCC(N)=O)C(=O)N[C@@H](CC(=O)O)C(=O)N[C@H](C(=O)N[C@@H](CCSC)C(=O)N[C@@H](CO)C(=O)N[C@@H](CCCNC(=N)N)C(=O)N[C@@H](CCC(N)=O)C(=O)N[C@@H](CCC(N)=O)C(=O)NCC(=O)N[C@@H](CCC(=O)O)C(=O)N[C@@H](CO)C(=O)N[C@@H](CC(N)=O)C(=O)N[C@@H](CCC(N)=O)C(=O)N[C@@H](CCC(=O)O)C(=O)N[C@@H](CCCNC(=N)N)C(=O)NCC(=O)N[C@@H](C)C(=O)N[C@@H](CCCNC(=N)N)C(=O)N[C@@H](C)C(=O)N[C@@H](CCCNC(=N)N)C(=O)N[C@@H](CC(C)C)C(N)=O)[C@@H](C)CC)C(C)C)[C@@H](C)O)[C@@H](C)CC [TH9507, (hexenoyl trans-3)hGRF(1-44)NH2]
[1]
  half-life: 180 to 480 min
[2]; 0.1 mg SC daily at bedtime, baseline to day 9
  Mean Reaction Time of the CPT, decrease from baseline: 45.85 ms
[2]; 1 mg SC daily at bedtime
  Mean Reaction Time of the CPT vs placebo: No significant effect
[3]; 0.1 mg
  Circulating IGF-1 level vs placebo: did not affect
  Circulating IGFBP-3 level vs placebo: did not affect
[3]; 1 mg
  Circulating IGF-1 level vs placebo: significantly increased
  Circulating IGFBP-3 level vs placebo: significantly increased
[4]
  Change from Baseline to day 9 in the Pz amplitude of the Evoked Related Potential (P300): +55%
[5]; Panama and New Caledonia strains
  percentage of subjects with protective antibody level: No statistical difference
[5]; Victoria antigen, statistically significant at 2 mg, weeks 6-20
  proportion of patients achieving a protective antibody level vs placebo: increased
[6]
  mean IGF-1 values vs baseline: dose-related increase
[7]
  IGF-1 levels: dose-related increase
[8]; 1 mg only, P<0.05 vs baseline, NS vs placebo
  abdominal pain (PLC): Improvement
[8]; 1 mg s.c. daily
  bloating score change (PLC): −0.50
  enlarged abdominal girth score change (PLC): −0.93
[8]; 1 mg, P=0.07 vs baseline, NS vs placebo
  tenseness (PLC): trend for improvement
[8]; 2 mg s.c. daily
  bloating score change (PLC): −0.69
  enlarged abdominal girth score change (PLC): −1.19
[8]; 1 or 2 mg s.c. daily
  subscales of the main portion of the PLC, between groups: No significant difference
[9]; 1 mg SC QD
  Fasting Glucose, Δ: 0.1 (0.5) mmol/L
  Fasting Insulin, Δ: −2.8 (27.6) mUI/L
  HBA1c, Δ: 0.2 (0.4)* %
  HOMA-R, Δ: 0.8 (7.0)
  Two hour glucose, Δ: 0.1 (2.1) mmol/L
[9]; 2 mg SC QD
  Fasting Glucose, Δ: 0.1 (0.7) mmol/L
  Fasting Insulin, Δ: 7.4 (6.2) mUI/L
  HBA1c, Δ: −0.0 (0.5) %
  HOMA-R, Δ: 2.0 (1.6)
  Two hour glucose, Δ: 0.7 (1.7) mmol/L
[10]; 1 mg SC QD
  CD4, Δ: 24.4 (147.41) cells/mm^3
[10]; 2 mg SC QD
  CD4, Δ: −23.2 (70.7) cells/mm^3
[10]; in vivo
  CD4 count and viral load: did not change
[11]
  IGF-I: increase IGF-I to the physiological range seen in younger adults
[12]; 1 mg SC QD
  Chol:HDL, Δ: −0.3 (0.6)
  HDL, Δ: 0.0 (0.2) mmol/L
  LDL, Δ: 0.1 (0.8) mmol/L
  NONHDL Cholesterol, Δ: −0.4 (1.5) mmol/L
  Total Cholesterol, Δ: −0.4 (1.7) mmol/L
  Triglycerides, Δ: −1.1 (4.4) mEq/L
  Triglyceride levels change: −0.9 (4.2)
  ratio of cholesterol to HDL change: −0.3 (0.7)
[12]; 2 mg SC QD
  Chol:HDL, Δ: −0.3 (0.7)
  HDL, Δ: 0.1 (0.1)* mmol/L
  LDL, Δ: 0.2 (0.7) mmol/L
  NONHDL Cholesterol, Δ: −0.1 (0.7) mmol/L
  Total Cholesterol, Δ: −0.1 (0.8) mmol/L
  Triglycerides, Δ: −0.9 (1.3)* mEq/L
  Triglyceride levels change: −0.9 (1.2)
  ratio of cholesterol to HDL change: −0.3 (0.6)
[13]; 1 mg SC QD, 12 weeks
  Visceral fat (VAT) change: −3.6%
[13]; 1 mg SC QD
  SAT, Δ: 6.8 (21.2) cm^2
  VAT, Δ: −11.9 (28.7) cm^2
[13]; 2 mg SC QD, 12 weeks
  Visceral fat (VAT) change: −15.7%
[13]; 2 mg SC QD
  SAT, Δ: 4.4 (19.8) cm^2
  VAT, Δ: −21.5 (27.9)* cm^2
[13]; 2 mg, over 3 months
  Visceral fat decrease within group: more than 15%
[13]; 1 and 2 mg SC QD, 12 weeks, between or within groups
  subcutaneous fat (SAT): preserved; also recorded: did not change significantly
